The results in this text go back to US6743568B2, “Cyanine dyes” (Kabushiki Kaisha Hayashibara Seibutsu Kagaku Kenkyujo, priority 2000, dated 2004).

The structures appear in SMILES notation.

A short description of the first data set: Solubility of cyanine dye in DAA at 20° C. The data set is classed as physicochemical. The settings on record: diacetone alcohol (DAA), 20 °C, organic solvent or mixture, in diacetone alcohol (DAA) at 20° C.; read-out: Solubility. How it is done: For the cyanine dyes in Table 1, they were measured in a conventional manner for solubility in […] at 20° C. In parallel, conventional related compounds represented by Chemical Formulae 73 to 76 were also measured for solubility in DAA in a similar way.
`CN1C(=CC=CC2=[N+](C)c3ccc4ccccc4c3C2(C)C)C(C)(C)c2c1ccc1ccccc21` [Chemical Formula 16]: the Solubility is 1.1 mg/mL.
Consider `CCCN1C(=CC=CC2=[N+](CC)c3ccc4ccccc4c3C2(C)C)C(C)(C)c2c1ccc1ccccc21` [Chemical Formula 21], for which the Solubility amounted to 2.8 mg/mL.
As for `CN1C(=CC=CC2=[N+](C)c3ccc4ccccc4c3C2(C)C)C(C)(C)c2ccc3ccccc3c21` [Chemical Formula 43], the Solubility amounted to 2.7 mg/mL.
As to `CCCC[N+]1=C(C=CC=C2N(C)c3c(ccc4ccccc34)C2(C)C)C(C)(C)c2c1ccc1ccccc21` [Chemical Formula 50], the Solubility is 64 mg/mL.
With `CCCCN1C(=CC=CC2=[N+](CCC)c3ccc4ccccc4c3C2(C)C)C(C)(C)c2c1ccc1ccccc21` [Chemical Formula 75, reference compound], the Solubility was 19 mg/mL.

The same data set, now with this note: in diacetone alcohol (DAA) at 20° C.
For `CCCCN1C(=CC=CC2=[N+](C)c3ccc4ccccc4c3C2(C)C)C(C)(C)c2c1ccc1ccccc21` [Chemical Formula 13], the “Solubility” value was determined as 143 mg/mL.
In the case of `CCCCN1C(=CC=CC2=[N+](C)c3ccc4ccccc4c3C2(C)C)C(C)(C)c2c1ccc1ccccc21` [Chemical Formula 14], the “Solubility” value was found to be 73 mg/mL.
Consider `CCCCN1C(=CC=CC2=[N+](CC)c3ccc4ccccc4c3C2(C)C)C(C)(C)c2c1ccc1ccccc21` [Chemical Formula 19], for which the “Solubility” value is 23 mg/mL.
Take `CCCCN1C(=CC=CC2=[N+](CC)c3ccc4ccccc4c3C2(C)C)C(C)(C)c2c1ccc1ccccc21` [Chemical Formula 20]: the “Solubility” value amounted to 140 mg/mL.
Consider `CCCCN1C(=CC=CC2=[N+](CCCC)c3ccc4ccccc4c3C2(C)C)C(C)(C)c2c1ccc1ccccc21` [Chemical Formula 33], for which the “Solubility” value was 61 mg/mL.
Turning to `CCCCN1/C(=C\C=C\C2=[N+](CCCC)c3ccc4ccccc4c3C2(C)C)C(C)(C)c2c1ccc1ccccc21` [Chemical Formula 35], the “Solubility” value was determined as 6.4 mg/mL.
Consider `CCCCN1C(=CC=CC2=[N+](C)c3ccc4ccccc4c3C2(C)C)C(C)(C)c2c1ccc1ccccc21` [Chemical Formula 73, reference compound], for which the “Solubility” value was 42 mg/mL.
Take `CCCCN1C(=CC=CC2=[N+](CC)c3ccc4ccccc4c3C2(C)C)C(C)(C)c2c1ccc1ccccc21` [Chemical Formula 74, reference compound]: the “Solubility” value amounted to 22 mg/mL.
Regarding `CCCCN1C(=CC=CC2=[N+](CCCC)c3ccc4ccccc4c3C2(C)C)C(C)(C)c2c1ccc1ccccc21` [Chemical Formula 76, reference compound], the “Solubility” value amounted to 17 mg/mL.

The next data set can be described thus: Decomposition point of cyanine dye by DTA/TGA. The data set is classed as physicochemical. The settings on record: temperature at which specimen begins to lose weight on TGA; heating rate 10° C./min. The text has this:
An adequate amount of any one of the cyanine dyes in Table 1 as a test specimen was placed in a vessel and subjected to conventional differential thermal analysis (hereinafter abbreviated as “DTA”) and thermogravimetric analysis (hereinafter abbreviated as “TGA”) using “MODEL TG/DTA 220”, a digital thermo analyzer commercialized by Seiko Instruments Inc., Tokyo, Japan, to determine their decomposition points, i.e., temperatures at which the cyanine dyes as test specimens begin to lose their weight on TGA. In parallel, conventional related compounds represented by Chemical Formulae 73 and 76 were analyzed similarly as above. […] In DTA and TGA, the environmental temperature was set to an increasing temperature mode at a rate of 10° C./min.
As to `CCCCN1C(=CC=CC2=[N+](C)c3ccc4ccccc4c3C2(C)C)C(C)(C)c2c1ccc1ccccc21` [Chemical Formula 13], the “Decomposition point (° C.)” value came to 264.7 °C.
Turning to `CCCCN1C(=CC=CC2=[N+](C)c3ccc4ccccc4c3C2(C)C)C(C)(C)c2c1ccc1ccccc21` [Chemical Formula 14], the “Decomposition point (° C.)” value stood at 279.8 °C.
For the molecule `CN1C(=CC=CC2=[N+](C)c3ccc4ccccc4c3C2(C)C)C(C)(C)c2c1ccc1ccccc21` [Chemical Formula 16], the “Decomposition point (° C.)” value turned out to be 314.5 °C.
As to `CCCCN1C(=CC=CC2=[N+](CC)c3ccc4ccccc4c3C2(C)C)C(C)(C)c2c1ccc1ccccc21` [Chemical Formula 19], the “Decomposition point (° C.)” value worked out at 281.6 °C.
As to `CCCCN1C(=CC=CC2=[N+](CC)c3ccc4ccccc4c3C2(C)C)C(C)(C)c2c1ccc1ccccc21` [Chemical Formula 20], the “Decomposition point (° C.)” value came out at 281.8 °C.
`CCCN1C(=CC=CC2=[N+](CC)c3ccc4ccccc4c3C2(C)C)C(C)(C)c2c1ccc1ccccc21` [Chemical Formula 21]: the “Decomposition point (° C.)” value turned out to be 301.9 °C.
For `CCCCN1C(=CC=CC2=[N+](CCCC)c3ccc4ccccc4c3C2(C)C)C(C)(C)c2c1ccc1ccccc21` [Chemical Formula 33], the “Decomposition point (° C.)” value is 284.2 °C.
Turning to `CCCCN1/C(=C\C=C\C2=[N+](CCCC)c3ccc4ccccc4c3C2(C)C)C(C)(C)c2c1ccc1ccccc21` [Chemical Formula 35], the “Decomposition point (° C.)” value is 280.1 °C.
As for `CN1C(=CC=CC2=[N+](C)c3ccc4ccccc4c3C2(C)C)C(C)(C)c2ccc3ccccc3c21` [Chemical Formula 43], the “Decomposition point (° C.)” value was 304.7 °C.
For `CCCC[N+]1=C(C=CC=C2N(C)c3c(ccc4ccccc34)C2(C)C)C(C)(C)c2c1ccc1ccccc21` [Chemical Formula 50], the “Decomposition point (° C.)” value amounted to 261.3 °C.
As for `CCCCN1C(=CC=CC2=[N+](C)c3ccc4ccccc4c3C2(C)C)C(C)(C)c2c1ccc1ccccc21` [Chemical Formula 73, reference compound], the “Decomposition point (° C.)” value was 242.2 °C.
The same measure, in the same setting: in the case of `CCCCN1C(=CC=CC2=[N+](CC)c3ccc4ccccc4c3C2(C)C)C(C)(C)c2c1ccc1ccccc21` [Chemical Formula 74, reference compound] it was 211.5 °C; in that of `CCCCN1C(=CC=CC2=[N+](CCC)c3ccc4ccccc4c3C2(C)C)C(C)(C)c2c1ccc1ccccc21` [Chemical Formula 75, reference compound], 269.0 °C; in that of `CCCCN1C(=CC=CC2=[N+](CCCC)c3ccc4ccccc4c3C2(C)C)C(C)(C)c2c1ccc1ccccc21` [Chemical Formula 76, reference compound], 266.1 °C.
